# Measured values published in ChEMBL document CHEMBL4004884, “Sesquiterpene derivatives from marine sponge Smenospongia cerebriformis and their anti-inflammatory activity” (Bioorg Med Chem Lett, 2017).
# Assays:
# BV-2 [1] = experiment: Antiinflammatory activity in mouse BV2 cells assessed as inhibition of LPS-stimulated nitric oxide production at 40 uM by Griess assay relative to control; format: functional
# BV-2 [2] = experiment: Antiinflammatory activity in mouse BV2 cells assessed as inhibition of LPS-stimulated nitric oxide production by Griess assay; format: functional, cell-based
# [3] = Cytotoxicity against mouse BV2 cells assessed as cell viability at 40 uM relative to control; format: cell-based, BV-2; conditions: read-out: Activity
IC50 (BV-2 [2]),SMILES,inhibition at 40 µM (BV-2 [1]),viability at 40 µM [3]
28.3 µM,C=C1CCC[C@H]2[C@](C)(C[C@@H]3C(=O)C=C(OC)[C@@H]3O)[C@@H](C)CC[C@]12C,> 50%,174%
> 40 µM,C=C1CCC[C@H]2[C@](C=O)(Cc3cc(C(=O)OC)c(O)c(OC)c3O)[C@@H](C)CC[C@]12C,,106%
> 40 µM,C=C1CCC[C@H]2[C@](C)(Cc3c(O)c(OC)cc4ncoc34)[C@@H](C)CC[C@]12C,,92.1%
24.4 µM,C=C1CCC[C@H]2[C@](CO)(Cc3cc(C(=O)OC)c(O)c(OC)c3O)[C@@H](C)CC[C@]12C,> 50%,160%
30.1 µM,C=C1CCC[C@H]2[C@](C)(C[C@H]3C(=O)C=C(OC)[C@@H]3O)[C@@H](C)CC[C@]12C,> 50%,141%
24.4 µM,C=C1CCC[C@H]2[C@](CO)(Cc3cc(C(=O)OC)cc(OC)c3O)[C@H](C)CC[C@]12C,> 50%,171%
> 40 µM,C=C1CCC[C@H]2[C@](C)(Cc3cc(C(=O)OC)ccc3O)[C@@H](C)CC[C@]12C,,121%
10.4 µM,C=C1CCC[C@H]2[C@](C)(CC3=C(O)C(=O)C=C(OC)C3=O)[C@@H](C)CC[C@]12C [ILIMAQUINONE],> 50%,95.7%
> 40 µM,C=C1CCC[C@H]2[C@](C)(Cc3cc(C(=O)OC)cc(OC)c3O)[C@@H](C)CC[C@]12C [POLYFIBROSPONGOL A],,125%
22.1 µM,CNC(=N)NCCC[C@H](N)C(=O)O [TILARGININE],,95.5%
